Experiments:
[1] = biological target: T1, β5 subunit of the human constitutive proteasome (CPS) (Homo sapiens, UniProt P28074); test: β5 inhibition assay, human constitutive proteasome (Suc-LLVY-AMC); assay type: biochemical; conditions: IC50 class, Suc-LLVY-AMC substrate
T1 construct: purchased Boston Biochem E-360
Protocol: The enzymatic activity of the β5 subunit of the human constitutive proteasome (CPS) is analyzed. In another assay, which differs from the assay of the human constitutive proteasome only in using the human immunoproteasome (IPS) the enzymatic activity of the β5 subunit of the human immunoproteasome (IPS) is analyzed. […] Inhibition is indicated as IC50 [nM] (“-”=not measured).

[2] = biological target: T2, β5 subunit of the human immunoproteasome (IPS) (Homo sapiens, UniProt P28062); test: β5 inhibition assay, human immunoproteasome (Suc-LLVY-AMC); assay type: biochemical; conditions: IC50 class, Suc-LLVY-AMC substrate
T2 construct: purchased Boston Biochem E-370
Summary of the method: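 β5 activity is read as liberated AMC fluorescence (355/460 nm) after 4 h dark reaction at RT with 22.6 μM Suc-LLVY-AMC, stopped by 1 μM bortezomib. Beforehand, 1 nM human IPS and compound sat 10 min at RT in HEPES pH 7.5 buffer containing NaCl, 0.02% SDS and DTT.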

[3] = test system: A549 (human lung carcinoma cell line); test: Glo assay of A549 cells (Table 3; ProteasomeGlo plating scheme); assay type: cell-based; conditions: Homo sapiens; A549 cells; read-out: PGLo A549
Summary of the method: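 After acoustic compound transfer, plates incubate 105 min (37° C., 5% CO2). Proteasome-Glo reagent containing Suc-LLVY-Glo substrate is added, plates are shaken, then luminescence is measured after 10-15 min to derive IC50 [nM]. Staurosporine and DMSO serve as controls.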

[4] = test system: Hs 746T (human gastric carcinoma cell line); test: 48 hr CTG viability assay, Hs 746T; assay type: cell-based; conditions: Hs746T, 48 hr CTG, read-out: Hs 746T IC50
Summary of the method: (§1)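 Growth inhibition by compound over 48 h; IC50 (nM) derived from duplicate CellTiter-Glo luminescence readings across 0.0015–10 uM.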

[5] = test system: MM1 S (B lymphoblast cell line); test: 48 hr CTG viability assay, MM1S; assay type: cell-based; conditions: Homo sapiens, 48 hr CTG, read-out: MM1S IC50
Summary of the method: as §1

[6] = test system: RPMI 8226 (B lymphocyte cell line, multiple myeloma); test: 48 hr CTG viability assay, RPMI 8226; assay type: cell-based; conditions: Homo sapiens, RPMI-8226; 48 hr CTG; read-out: RPMI-8226 IC50
Summary of the method: as §1

Row | Structure (SMILES) | IC50 [1] [µM] | IC50 [2] [µM] | IC50 [3] [µM] | IC50 [4] [µM] | IC50 [5] [µM] | IC50 [6] [µM]
1 | Cc1ccc2cc1CNC(=O)[C@H](CCc1ccccc1)NC(=O)[C@@H](NC(=O)CCNCCC1CCCC1)CC(=O)N1CCCC(CCO2)C1 (stereo partly drawn) [Compound 700, 3-((2-cyclopentylethyl)amino)-N-((9S,12S)-5^4-methyl-8,11,14-trioxo-9-phenethyl-4-oxa-7,10-diaza-1(3,1)-piperidina-5(1,3)-benzenacyclotetradecaphane-12-yl)propanamide] | < 0.1 | < 0.1 | < 0.1 | < 0.1 | < 0.1 | < 0.1
2 | Cc1ccc2cc1CNC(=O)[C@H](CCc1ccccc1)NC(=O)[C@@H](NC(=O)CCOCc1ccccc1)CC(=O)N1CCCC(CCO2)C1 (stereo partly drawn) [Compound 589, 3-(benzyloxy)-N-((9S,12S)-5^4-methyl-8,11,14-trioxo-9-phenethyl-4-oxa-7,10-diaza-1(3,1)-piperidina-5(1,3)-benzenacyclotetradecaphane-12-yl)propanamide] | < 0.1 | < 0.1 | < 0.1 | < 0.1 | < 0.1 | < 0.1
3 | Cc1ccc2cc1CNC(=O)[C@H](CCc1ccccc1)NC(=O)[C@@H](NC(=O)C1CCCCC1)CC(=O)N1CCCC(CCO2)C1 (stereo partly drawn) [Compound 643, N-((9S,12S)-5^4-methyl-8,11,14-trioxo-9-phenethyl-4-oxa-7,10-diaza-1(3,1)-piperidina-5(1,3)-benzenacyclotetradecaphane-12-yl)cyclohexanecarboxamide] | < 0.1 | < 0.1 | < 0.1 | < 0.1 | < 0.1 | < 0.1
4 | Cc1ccc2cc1CNC(=O)C(CCc1ccncc1)NC(=O)[C@@H](NC(=O)Cc1ccc(N)cc1C)CC(=O)N1CCCC(CCO2)C1 (stereo partly drawn) [Compound 678, 2-(4-amino-2-methylphenyl)-N-((12S)-5^4-methyl-8,11,14-trioxo-9-(2-(pyridin-4-yl)ethyl)-4-oxa-7,10-diaza-1(3,1)-piperidina-5(1,3)-benzenacyclotetradecaphane-12-yl)acetamide] | < 0.1 | < 0.1 | < 0.1 | < 0.1 | < 0.1 | < 0.1
5 | Cc1ccc2cc1CNC(=O)[C@H](CCc1ccccc1)NC(=O)[C@@H](NC(=O)C1CC3CCC(C1)N3C)CC(=O)N1CCCC(CCO2)C1 (stereo partly drawn) [Compound 713, 8-methyl-N-((9S,12S)-5^4-methyl-8,11,14-trioxo-9-phenethyl-4-oxa-7,10-diaza-1(3,1)-piperidina-5(1,3)-benzenacyclotetradecaphane-12-yl)-8-azabicyclo[3.2.1]octane-3-carboxamide] | < 0.1 | < 0.1 | < 0.1 | 0.1 to 0.5 | < 0.1 | < 0.1
6 | C#CCC[C@@H]1NC(=O)[C@@H](NC(=O)Cc2cn3ccsc3n2)CC(=O)N2CCCC(CCOc3ccc(C)c(c3)CNC1=O)C2 (stereo partly drawn) [Compound 686, N-((9S,12S)-9-(but-3-yn-1-yl)-5^4-methyl-8,11,14-trioxo-4-oxa-7,10-diaza-1(3,1)-piperidina-5(1,3)-benzenacyclotetradecaphane-12-yl)-2-(imidazo[2,1-b]thiazol-6-yl)acetamide] | < 0.1 | < 0.1 | < 0.1 | < 0.1 | < 0.1 | < 0.1
7 | Cc1ccc2cc1CNC(=O)[C@H](CCc1ccccc1)NC(=O)[C@@H](NC(=O)CCNCc1ccc(-c3ccncc3)cc1)CC(=O)N1CCCC(CCO2)C1 (stereo partly drawn) [Compound 603, N-((9S,12S)-5^4-methyl-8,11,14-trioxo-9-phenethyl-4-oxa-7,10-diaza-1(3,1)-piperidina-5(1,3)-benzenacyclotetradecaphane-12-yl)-3-((4-(pyridin-4-yl)benzyl)amino)propanamide] | < 0.1 | < 0.1 | < 0.1 | < 0.1 | < 0.1 | < 0.1
8 | COc1ccc(CCCOCCC(=O)N[C@H]2CC(=O)N3CCCC(CCOc4ccc(C)c(c4)CNC(=O)[C@H](CCc4ccccc4)NC2=O)C3)cc1 (stereo partly drawn) [Compound 606, 3-(3-(4-methoxyphenyl)propoxy)-N-((9S,12S)-5^4-methyl-8,11,14-trioxo-9-phenethyl-4-oxa-7,10-diaza-1(3,1)-piperidina-5(1,3)-benzenacyclotetradecaphane-12-yl)propanamide] | < 0.1 | < 0.1 | < 0.1 | < 0.1 | < 0.1 | < 0.1
9 | Cc1ccc2cc1CNC(=O)[C@H](CCc1ccccc1)NC(=O)[C@@H](NC(=O)CCNCC1CCC1)CC(=O)N1CCCC(CCO2)C1 (stereo partly drawn) [Compound 674, 3-((cyclobutylmethyl)amino)-N-((9S,12S)-5^4-methyl-8,11,14-trioxo-9-phenethyl-4-oxa-7,10-diaza-1(3,1)-piperidina-5(1,3)-benzenacyclotetradecaphane-12-yl)propanamide] | < 0.1 | < 0.1 | < 0.1 | < 0.1 | < 0.1 | < 0.1
10 | Cc1ccc2cc1CNC(=O)[C@H](CCc1ccccc1)NC(=O)[C@@H](NC(=O)CCOCC1CCC1)CC(=O)N1CCCC(CCO2)C1 (stereo partly drawn) [Compound 628, 3-(cyclobutylmethoxy)-N-((9S,12S)-5^4-methyl-8,11,14-trioxo-9-phenethyl-4-oxa-7,10-diaza-1(3,1)-piperidina-5(1,3)-benzenacyclotetradecaphane-12-yl)propanamide] | < 0.1 | < 0.1 | < 0.1 | < 0.1 | < 0.1 | < 0.1

More lines, now with the values ahead:

Row | IC50 [1] [µM] | IC50 [2] [µM] | IC50 [3] [µM] | IC50 [4] [µM] | IC50 [5] [µM] | IC50 [6] [µM] | Structure (SMILES)
11 | < 0.1 | < 0.1 | < 0.1 | < 0.1 | < 0.1 | < 0.1 | Cc1ccc2cc1CNC(=O)[C@H](CCc1ccccc1)NC(=O)[C@@H](NC(=O)CCNC(=O)C1CC3CCC1O3)CC(=O)N1CCCC(CCO2)C1 (stereo partly drawn) [Compound 701, N-(3-(((9S,12S)-5^4-methyl-8,11,14-trioxo-9-phenethyl-4-oxa-7,10-diaza-1(3,1)-piperidina-5(1,3)-benzenacyclotetradecaphane-12-yl)amino)-3-oxopropyl)-7-oxabicyclo[2.2.1]heptane-2-carboxamide]
12 | < 0.1 | < 0.1 | 0.1 to 0.5 | 1 to 5 | 0.5 to 1 | 0.1 to 0.5 | Cc1ccc2cc1CNC(=O)[C@H](CCc1ccccc1)NC(=O)[C@@H](NCC(C)(C)N)CC(=O)N1CCCC(CCO2)C1 (stereo partly drawn) [Compound 727, (9S,12S)-12-((2-amino-2-methylpropyl)amino)-5^4-methyl-9-phenethyl-4-oxa-7,10-diaza-1(3,1)-piperidina-5(1,3)-benzenacyclotetradecaphane-8,11,14-trione]
13 | < 0.1 | < 0.1 | < 0.1 | 0.1 to 0.5 | < 0.1 | 0.1 to 0.5 | Cc1ccc2cc1CNC(=O)[C@H](CCc1ccccc1)NC(=O)[C@@H](NC(=O)Cc1ccc(N)cc1C)CCCC(=O)NCCCCO2 [Compound 718, 2-(4-amino-2-methylphenyl)-N-((12S,15S)-1^4-methyl-8,13,16-trioxo-15-phenethyl-2-oxa-7,14,17-triaza-1(1,3)-benzenacyclooctadecaphane-12-yl)acetamide]
14 | < 0.1 | < 0.1 | < 0.1 | 0.5 to 1 | 0.1 to 0.5 | 0.1 to 0.5 | Cc1ccc2cc1CNC(=O)[C@H](CCc1ccccc1)NC(=O)[C@@H](NC(=O)[C@@H](N)CC(=O)O)CC(=O)N1CCCC(CCO2)C1 (stereo partly drawn) [Compound 719, (3S)-3-amino-4-(((9S,12S)-5^4-methyl-8,11,14-trioxo-9-phenethyl-4-oxa-7,10-diaza-1(3,1)-piperidina-5(1,3)-benzenacyclotetradecaphane-12-yl)amino)-4-oxobutanoic acid]
15 | < 0.1 | < 0.1 | < 0.1 | 0.1 to 0.5 | < 0.1 | < 0.1 | Cc1ccc2cc1CNC(=O)[C@H](CCN1C[C@@H]3C[C@H]1CO3)NC(=O)[C@@H](NC(=O)Cc1cn3ccsc3n1)CC(=O)N1CCCC(CCO2)C1 [Compound 739, N-((9S,12S)-9-(2-((1S,4S)-2-oxa-5-azabicyclo[2.2.1]heptan-5-yl)ethyl)-5^4-methyl-8,11,14-trioxo-4-oxa-7,10-diaza-1(3,1)-piperidina-5(1,3)-benzenacyclotetradecaphane-12-yl)-2-(imidazo[2,1-b]thiazol-6-yl)acetamide]

— patent US20240415819A1, “MACROCYCLIC COMPOUNDS AS PROTEASOME SUBUNIT BETA TYPE-5 INHIBITORS” (Lead Discovery Center GmbH, priority 2021, published 2024)
